# Test results: patent US11628169B2, “Therapeutic drug for motor complications in Parkinson's disease” (Sumitomo Pharma Co., Ltd., priority 2020, dated 2023)
# Counter-ions that a name gives are not always drawn.
# Key:
# Type in all cases: in vivo
# PD-LID rat model [1] = experiment: Dyskinesia-like symptom (AIMs) score in PD-LID rat model; conditions: for total dyskinesia-like symptom (AIMs) score in 3 hours: levodopa 5 min later, vs solvent group
# Description: To make a PD-LID rat model, a mixture of levodopa methyl ester hydrochloride (6 mg/kg; Sigma-Aldrich) dissolved in saline and benserazide hydrochloride (15 mg/kg; Sigma-Aldrich) (hereinafter, also referred to as “levodopa containing solution”) was intraperitoneally administered once daily to 6-OHDA-lesioned rats. The levodopa containing solution was repeatedly administered for 3 weeks or longer to observe and evaluate the behavior. The behavior was observed and evaluated in a transparent acrylic cage for 1 minute every 20 minutes after 20 minutes from the intraperitoneal administration of the levodopa containing solution, up until after 3 hours from administration. […] The sum of the scores for Limb AIMs, Axial AIMs, and Orolingual AIMs in 3 hours was used as the total dyskinesia-like symptom (AIMs) score. Individuals with a total AIMs score of less than 10 were excluded from the test as not manifesting a dyskinesia-like symptom. The behavior was observed and evaluated before the drug evaluation date. The rats were assigned to each dosing group by using the 3 hour total dyskinesia-like symptom (AIMs) score, Locomotive behavior score, and rat body weight as indicators, which were used for evaluation of drugs. […]
# After 4 hours from application, a levodopa containing solution was intraperitoneally administered to observe and evaluate the behavior. Individuals with 50% or more of the tape agent coming off during the test were excluded from analysis. […]
# As in Example 2, a levodopa containing solution was repeated administered to 6-0HDA-lesioned rats for 3 weeks or longer to observe and evaluate the behavior. The behavior was observed and evaluated before the drug evaluation date. The rats were assigned to each dosing group by using the 3 hour dyskinesia-like symptom (AIMs) score, Locomotive behavior score, and rat body weight as indicators, which were used for evaluation of drugs. However, individuals with a total AIMs score of less than 10 were excluded from the test as lacking manifestation of a dyskinesia-like symptom. Individuals with a body weight deviating 10% or more from the mean body weight were also excluded from the test to minimize variation in the dosage for each individual. […]
# After 4 hours, a levodopa containing solution was administered to observe and evaluate the behavior. […]
# The prepared solution was used after injection into an ALZET® Osmotic Pump MODEL 2ML2 (4.53 μL/hour; DURECT) for releasing a drug solution at a stable rate for 2 weeks. […]
# The behavior was observed and evaluated using the same method as Example 2. […] After 5 minutes, a levodopa containing solution was intraperitoneally administered, and the behavior was observed and evaluated. The results in the drawings are indicated in terms of mean value […] standard error. The test results were statistically analyzed by comparison with the solvent administration group by Steel test using the total dyskinesia-like symptom (AIMs) score in 3 hours and total dyskinesia-like symptom score in 100 to 180 minutes as parameters. * indicates p<0.05, meaning that there is a significant difference.
# The behavior was observed and evaluated using the same method in Example 2. […] The test results were statistically analyzed by comparison with the solvent administration group by Steel test by using the total dyskinesia-like symptom (AIMs) score in 3 hours and total dyskinesia-like symptom score in 100 to 180 minutes as parameters.
# PD-LID rat model [2] = experiment: as above
# PD-LID rat model [3] = experiment: ON score and ON time without dyskinesia in PD-LID rat model
# Description: To make a PD-LID rat model, a mixture of levodopa methyl ester hydrochloride (6 mg/kg; Sigma-Aldrich) dissolved in saline and benserazide hydrochloride (15 mg/kg; Sigma-Aldrich) (hereinafter, also referred to as “levodopa containing solution”) was intraperitoneally administered once daily to 6-OHDA-lesioned rats. The levodopa containing solution was repeatedly administered for 3 weeks or longer to observe and evaluate the behavior. The behavior was observed and evaluated in a transparent acrylic cage for 1 minute every 20 minutes after 20 minutes from the intraperitoneal administration of the levodopa containing solution, up until after 3 hours from administration. […] Individuals with a total AIMs score of less than 10 were excluded from the test as not manifesting a dyskinesia-like symptom. The behavior was observed and evaluated before the drug evaluation date. […] For an indicator of dyskinesia behavior, the sum of the Limb AIMs, Axial AIMs, and Orolingual AIMs at each evaluation point was used as the AIMs score. For the rotational behavior (ON score), Locomotive behavior at each evaluation point was used as an indicator. […] For ON time without dyskinesia, the period during which the AIMs score is 0 and Locomotive behavior is 1 or greater at each evaluation point was added. Duration of action of levodopa without a dyskinesia symptom (ON time without dyskinesia) refers to the aggregate time with no dyskinesia during the antiparkinsonian action effective time, i.e., “ON-time”, and defined as the time during which the dyskinesia symptom (AIMs) score is 0 and the rotational behavior (Locomotive behavior) score is 1 or greater at each evaluation point after levodopa administration. […] After 5 minutes, a levodopa containing solution was intraperitoneally administered, and the behavior was observed and evaluated. The results in the drawings are indicated in terms of mean value±standard error. […] For evaluation of a tape agent, the abdominal regions of the rats were shaved prior to the evaluation date. […] After 4 hours from application, a levodopa containing solution was intraperitoneally administered to observe and evaluation the behavior. The results in the drawings are indicated in terms of mean value±standard error. Individuals with 50% or more of the tape agent coming off during the test were excluded from analysis.
# [4] = system: rat Vogel conflict test model; experiment: Anxiolytic action in rat Vogel conflict test model; conditions: effect on PD-LID evaluated in 6-OHDA-lesioned rats
# Description: The anxiolytic action was evaluated using a rat Vogel conflict test model, and the effect on PD-LID was evaluated in 6-0HDA-lesioned rats.
# [5] = continuous subcutaneous infusion 1.25 mg/kg/hour, vs solvent
# [6] = oral 6.7 mg/kg as free form (10 mg/kg as citrate)
# [7] = oral 67 mg/kg as free form (100 mg/kg as citrate)
# [8] = transdermal condition 1, 37 mg/kg as free form
# [9] = transdermal condition 2 (stripping), 45 mg/kg as free form
compound,measurement,setting,value
"c1cnc(N2CCNCC2)nc1 [1-PP dihydrochloride, 1-(2-Pyrimidyl)piperazine]",total dyskinesia-like symptom (AIMs) score in 3 hours,PD-LID rat model [1]; subcutaneous 10 mg/kg,significant change in the total AIMs score was not found
same,total dyskinesia-like symptom (AIMs) score in 3 hours,PD-LID rat model [1]; subcutaneous 30 mg/kg,significant change in the total AIMs score was not found
same,total dyskinesia-like symptom score in 100 to 180 minutes,"PD-LID rat model [2]; subcutaneous 10 or 30 mg/kg, vs solvent group","increasing trend in the total AIMs score, albeit not significant"
"O=C1[C@@H]2[C@H]3CC[C@H](C3)[C@@H]2C(=O)N1CCCCN1CCN(c2ncccn2)CC1 [tandospirone, (1R,2S,3R,4S)—N-[4-{4-(pyrimidine-2-yl)piperadine-1-yl}butyl]-2,3-bicyclo[2.2.1]heptanedicarboximide]",(iii) Duration of action of levodopa without dyskinesia symptom (ON time without dyskinesia),"PD-LID rat model [3]; oral 6.7 mg/kg as free form (10 mg/kg as citrate), vs solvent group",Ineffective
same,(iii) Duration of action of levodopa without dyskinesia symptom (ON time without dyskinesia),"PD-LID rat model [3]; oral 20 mg/kg as free form (30 mg/kg as citrate), vs solvent group",Ineffective
same,(iii) Duration of action of levodopa without dyskinesia symptom (ON time without dyskinesia),"PD-LID rat model [3]; transdermal condition 1 (no stripping), 37 mg/kg as free form, 180 min, prolongation vs placebo tape",21.7 min
same,(iii) Duration of action of levodopa without dyskinesia symptom (ON time without dyskinesia),"PD-LID rat model [3]; transdermal condition 2 (stripping), 45 mg/kg as free form, 180 min, prolongation vs placebo tape",77.8 min
same,total dyskinesia-like symptom score in 100 to 180 minutes,PD-LID rat model [1]; [5],significant improvement
same,dyskinesia-like symptoms (total AIMs score in 3 hours),"PD-LID rat model [1]; continuous subcutaneous infusion 0.05, 0.25, 1.25 mg/kg/hour, levodopa 4 hours after pump implant, vs solvent",dose-dependently improved dyskinesia-like symptoms
same,dyskinesia-like symptoms (total AIMs score in 3 hours),PD-LID rat model [2]; [5],significant improvement
same,"(i) Degree of improvement in indicator of dyskinesia symptom (total AIMs score in 3 hours, solvent minus tandospirone group)",PD-LID rat model [2]; [6],Ineffective
same,"(ii) Indicator of rebound symptom of dyskinesia (total dyskinesia-like symptom score in 100 to 180 minutes, solvent minus tandospirone group)",PD-LID rat model [2]; [6],No effect
same,"(i) Degree of improvement in indicator of dyskinesia symptom (total AIMs score in 3 hours, solvent minus tandospirone group)",PD-LID rat model [2]; oral 20 mg/kg as free form (30 mg/kg as citrate),Ineffective
same,"(ii) Indicator of rebound symptom of dyskinesia (total dyskinesia-like symptom score in 100 to 180 minutes, solvent minus tandospirone group)","PD-LID rat model [2]; oral 20 mg/kg as free form (30 mg/kg as citrate), experiment printed as (FIG. 7)",−9.1
same,"(ii) Indicator of rebound symptom of dyskinesia (total dyskinesia-like symptom score in 100 to 180 minutes, solvent minus tandospirone group)","PD-LID rat model [2]; oral 20 mg/kg as free form (30 mg/kg as citrate), experiment printed as (FIGS. 8A-8B)",−8.5
same,"(i) Degree of improvement in indicator of dyskinesia symptom (total AIMs score in 3 hours, solvent minus tandospirone group)",PD-LID rat model [2]; [7],Ineffective
same,"(ii) Indicator of rebound symptom of dyskinesia (total dyskinesia-like symptom score in 100 to 180 minutes, solvent minus tandospirone group)",PD-LID rat model [2]; [7],−10.1
same,"(i) Degree of improvement in indicator of dyskinesia symptom (total AIMs score in 3 hours, placebo minus tandospirone group)",PD-LID rat model [2]; [8],17.7
same,"(ii) Indicator of rebound symptom of dyskinesia (total dyskinesia-like symptom score in 100 to 180 minutes, placebo minus tandospirone group)",PD-LID rat model [2]; [8],No effect
same,"(i) Degree of improvement in indicator of dyskinesia symptom (total AIMs score in 3 hours, placebo minus tandospirone group)",PD-LID rat model [2]; [9],27.1
same,"(ii) Indicator of rebound symptom of dyskinesia (total dyskinesia-like symptom score in 100 to 180 minutes, placebo minus tandospirone group)",PD-LID rat model [2]; [9],No effect
same,anxiolytic action compared with effect on PD-LID,[4],exerted at the same dosage
